Experimental data taken from patent publication US7517888B2, “A1 adenosine receptor antagonists” (CV Therapeutics, Inc., priority 2004, dated 2009).
Like-named read-outs stand apart in the source and are kept apart here.

Columns and labels:
Human-A2B (HEK-A2B) = target: T1, Human-A2B (HEK-A2B) (Homo sapiens, UniProt P29275); experiment: Radioligand binding, human A2B AdoR, HEK-A2B membranes
T1 construct: expressed in transfected cells; host or cells: HEK-293 cells, stably transfected (HEK-A2B)
T1 sequence (P29275 1-332): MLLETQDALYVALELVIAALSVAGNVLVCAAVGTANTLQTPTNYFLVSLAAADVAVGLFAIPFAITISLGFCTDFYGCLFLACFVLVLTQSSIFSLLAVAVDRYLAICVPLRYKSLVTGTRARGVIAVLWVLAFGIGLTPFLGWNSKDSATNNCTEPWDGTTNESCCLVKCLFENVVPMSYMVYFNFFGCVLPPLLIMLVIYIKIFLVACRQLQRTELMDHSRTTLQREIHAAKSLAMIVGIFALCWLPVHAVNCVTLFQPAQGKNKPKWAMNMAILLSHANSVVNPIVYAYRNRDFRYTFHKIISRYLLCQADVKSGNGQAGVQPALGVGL
Experimental: (§1) The cDNAs for human A1, A2A, A2B or A3 AdoRs were prepared by RT-PCR from total RNA of human cells or tissues and sequenced on both strands. The expression vector containing each of these cDNAs and a second vector containing a neomycin or puromycin-resistance gene were introduced to HEK-293 or CHO cells by Lipofectin-Plus (Life Technology). Colonies were selected by growing transfected cells in the presence of neomycin or puromycin. Stably transfected cells were maintained in Dulbecco's modified Eagle's medium (DMEM) or F-12 medium with 10% fetal bovine serum, 100 μg/ml penicillin, 100 μg/ml streptomycin and appropriate concentrations of neomycin or puromycin. These stably transfected cells were referred to as HEK-“AdoR” or CHO-“AdoR” depending on the receptors that they express. The cell lines used routinely were CHO-A1, HEK-A2A, HEK-A2B.and CHO-A3 cells. In addition, hamster DDT1 MF-2 cells that express endogenous A1 AdoRs were also used to determine the binding activities of compounds for A1 AdoRs.
(§2) Monolayers of transfected cells or DDT1 MF-2 were washed with phosphate buffered saline (PBS) and harvested in a buffer containing 10 mM HEPES (pH 7.4), 10 mM EDTA and protease inhibitors. The cells were homogenized in polytron for 1 minute at setting 4 and centrifuged at 29000 g for 15 minutes at 4° C. The cell pellets were washed with a buffer containing 10 mM HEPES (pH7.4), 1 mM EDTA and protease inhibitors, and were resuspended in the same buffer supplemented with 10% sucrose. Frozen aliquots were kept at −80° C.
[…] The amounts of radioligands that bound to the GF/B filter plates were determined by scintillation counting. Nonspecific binding were determined in the presence of 1-10 μM of cold ligands. Bmax and KD values were calculated using GraphPad software.

Hamster-A1 (DDT1 MF-2) = target: T2, Hamster-A1 (DDT1 MF-2) (Mesocricetus auratus, UniProt A0A1U8BVR4); experiment: Radioligand binding, hamster A1 AdoR, DDT1 MF-2 membranes
T2 sequence (A0A1U8BVR4 1-326): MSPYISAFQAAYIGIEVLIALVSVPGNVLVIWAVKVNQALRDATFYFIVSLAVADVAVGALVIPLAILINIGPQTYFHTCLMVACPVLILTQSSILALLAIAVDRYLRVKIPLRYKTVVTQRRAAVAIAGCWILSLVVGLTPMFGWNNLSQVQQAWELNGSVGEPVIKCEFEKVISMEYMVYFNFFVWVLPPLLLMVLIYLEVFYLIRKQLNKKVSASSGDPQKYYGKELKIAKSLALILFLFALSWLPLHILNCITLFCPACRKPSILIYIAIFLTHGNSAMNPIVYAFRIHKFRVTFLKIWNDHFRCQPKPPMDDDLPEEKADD
Experimental: as §1, §2
(§3) The affinities of compounds for A1, A2A, A2B or A3 AdoRs were determined in competition studies using radioligands such as ^3H—CPX (A1 antagonist), or ^3H—CCPA (A1 agonist), ^3H-ZM241385 (A2A antagonist) or ^3H-CGS21680 (A2A agonist), ^3H-ZM241385 (A2B antagonist) or ^125I-AB-MECA (A3 agonist) and membranes of corresponding cells. […] The assays were incubated for 60-90 minutes, stopped by filtration onto GF/B filter plates using Packard Harvester and washed four times with ice-cold TM buffer (10 mM Tris, 1 mM MgCl2, pH 7.4). The amounts of radioligands that bound to the GF/B filter plates were determined by scintillation counting. Nonspecific binding were determined in the presence of 1-10 μM of cold ligands. Bmax and KD values were calculated using GraphPad software.

Human-A2A (HEK-A2A) = target: T3, Human-A2A (HEK-A2A) (Homo sapiens, UniProt P29274); experiment: Radioligand binding, human A2A AdoR, HEK-A2A membranes
T3 construct: expressed in transfected cells; host or cells: HEK-293 cells, stably transfected (HEK-A2A)
Experimental: as §1, §2, §3

Human-A1 (CHO-A1) = target: T4, Human-A1 (CHO-A1) (Homo sapiens, UniProt P30542); experiment: Radioligand binding, human A1 AdoR, CHO-A1 membranes
T4 construct: expressed in transfected cells; host or cells: CHO cells, stably transfected (CHO-A1)
T4 sequence (P30542 1-326): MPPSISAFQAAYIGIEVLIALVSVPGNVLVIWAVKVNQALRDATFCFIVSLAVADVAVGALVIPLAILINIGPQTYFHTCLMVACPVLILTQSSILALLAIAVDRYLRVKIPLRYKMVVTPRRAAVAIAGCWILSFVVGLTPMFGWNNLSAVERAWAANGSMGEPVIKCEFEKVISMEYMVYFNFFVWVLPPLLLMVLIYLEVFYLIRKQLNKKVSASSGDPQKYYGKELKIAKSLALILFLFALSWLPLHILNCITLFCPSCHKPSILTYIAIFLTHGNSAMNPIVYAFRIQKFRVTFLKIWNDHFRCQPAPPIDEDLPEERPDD
Experimental: as §1, §2, §3

[1] = 3H-CGS21680 radioligand (footnote c), HEK-A2B membranes, read-out: Ki (low) Human-A2B HEK-A2B
[2] = 3H-CPX radioligand, DDT1 MF-2 membranes, read-out: Ki (low) Hamster-A1 DDT1 MF-2
[3] = 3H-ZM241385 radioligand, HEK-A2A membranes, read-out: Ki (low) Human-A2A HEK-A2A
[4] = 3H-CPX radioligand, CHO-A1 membranes, read-out: Ki (low) Human-A1 CHO-A1

T3 sequence (P29274 whole entry): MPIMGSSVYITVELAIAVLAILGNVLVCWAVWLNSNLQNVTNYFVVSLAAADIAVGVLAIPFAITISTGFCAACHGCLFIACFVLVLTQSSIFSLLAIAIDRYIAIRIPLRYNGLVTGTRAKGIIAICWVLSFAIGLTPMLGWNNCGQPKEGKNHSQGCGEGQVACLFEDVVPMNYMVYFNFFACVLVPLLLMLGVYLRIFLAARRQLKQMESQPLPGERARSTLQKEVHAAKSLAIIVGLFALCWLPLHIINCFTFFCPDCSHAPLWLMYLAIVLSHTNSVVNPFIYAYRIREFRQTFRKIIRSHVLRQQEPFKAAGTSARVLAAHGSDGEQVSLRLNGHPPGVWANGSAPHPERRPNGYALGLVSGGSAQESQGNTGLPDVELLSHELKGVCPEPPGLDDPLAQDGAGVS

Row | SMILES | Ki (Human-A2B (HEK-A2B); [1]) [nM] | Ki (Hamster-A1 (DDT1 MF-2); [2]) [nM] | Ki (Human-A2A (HEK-A2A); [3]) [nM] | Ki (Human-A1 (CHO-A1); [4]) [nM] | Ki (Human-A2B (HEK-A2B)) [nM] | Ki (Hamster-A1 (DDT1 MF-2)) [nM] | Ki (Human-A2A (HEK-A2A)) [nM] | Ki (Human-A1 (CHO-A1)) [nM]
1 | CCn1c(-c2ccccc2)nc2c(NC3CCCCC3)ncnc21 [cyclohexyl(9-ethyl-8-phenylpurin-6-yl)amine] | > 6670 | 4 | > 5000 | 11 | – | – | – | –
2 | Cn1c(-c2ccc(O)cc2)nc2c(NC3CCCC3)ncnc21 [4-[6-(cyclopentylamino)-9-methylpurin-8-yl]phenol] | – | – | – | – | > 6670 | 4 | > 5000 | 9
3 | Cn1c(-c2cccc(Cl)c2)nc2c(NC3CCCC3)ncnc21 [[8-(3-chlorophenyl)-9-methylpurin-6-yl]cyclopentylamine] | > 6670 | 3 | > 5000 | 5 | – | – | – | –
4 | Cn1c(-c2ccc(Cl)cc2)nc2c(NC3CCCC3)ncnc21 [[8-(4-chlorophenyl)-9-methylpurin-6-yl]cyclopentylamine] | > 6670 | 10 | > 5000 | 9 | – | – | – | –
5 | CCCn1c(-c2ccccc2)nc2c(NC3CCCCC3)ncnc21 [cyclohexyl(8-phenyl-9-propylpurin-6-yl)amine] | > 6670 | 11 | > 5000 | 25 | – | – | – | –

Further lines, with some results ahead:

Row | Ki (Human-A2B (HEK-A2B); [1]) [nM] | Ki (Hamster-A1 (DDT1 MF-2); [2]) [nM] | Ki (Human-A2A (HEK-A2A); [3]) [nM] | Ki (Human-A1 (CHO-A1); [4]) [nM] | SMILES | Ki (Human-A2B (HEK-A2B)) [nM] | Ki (Hamster-A1 (DDT1 MF-2)) [nM] | Ki (Human-A2A (HEK-A2A)) [nM] | Ki (Human-A1 (CHO-A1)) [nM]
6 | > 6670 | 84 | > 5000 | 184 | Cn1c(-c2cccnc2)nc2c(NC3CCCC3)ncnc21 [cyclopentyl(9-methyl-8-(3-pyridyl)purin-6-yl)amine] | – | – | – | –
7 | > 6670 | 1 | > 5000 | 2 | Cn1c(-c2ccccc2)nc2c(NC3CCCCC3)ncnc21 [cyclohexyl(9-methyl-8-phenylpurin-6-yl)amine] | – | – | – | –
8 | > 6670 | 3 | > 5000 | 5 | Cc1ccc(-c2nc3c(NC4CCCC4)ncnc3n2C)cc1 [cyclopentyl[9-methyl-8-(4-methylphenyl)purin-6-yl]amine] | – | – | – | –
9 | > 6670 | 20 | > 5000 | 42 | Cc1ccccc1-c1nc2c(NC3CCCC3)ncnc2n1C [cyclopentyl[9-methyl-8-(2-methylphenyl)purin-6-yl]amine] | – | – | – | –
10 | > 6670 | 2 | > 5000 | 5 | Cc1cccc(-c2nc3c(NC4CCCC4)ncnc3n2C)c1 [cyclopentyl[9-methyl-8-(3-methylphenyl)purin-6-yl]amine] | – | – | – | –
11 | > 6670 | 22 | > 5000 | 32 | COc1ccc(-c2nc3c(NC4CCCC4)ncnc3n2C)cc1 [cyclopentyl[8-(4-methoxyphenyl)-9-methylpurin-6-yl]amine] | – | – | – | –
12 | > 6670 | 1 | > 5000 | 5 | Cn1c(-c2ccc(F)cc2)nc2c(NC3CCCC3)ncnc21 [cyclopentyl[8-(4-fluorophenyl)-9-methylpurin-6-yl]amine] | – | – | – | –
